Experimental data from ChEMBL document CHEMBL1131757, “4,10-dihydro-5H-thieno[3,2-c][1]benzazepine derivatives and 9,10-dihydro-4H-thieno[2,3-c][1]benzazepine derivatives as orally active arginine vasopressin receptor antagonists” (Bioorg Med Chem Lett, 1999).

Assays:
Rattus norvegicus = assay: Amount of urine output was measured in rat at a dose of 10 mg/kg administered orally; format: ADME, organism-based; design: dose 10 mg/kg, route oral; settings: in vivo, po
Vasopressin V2 receptor = Vasopressin V2 receptor (Homo sapiens, UniProt P30518); assay: In vitro inhibition of [3H]AVP binding to human V2 receptor from murine fibroblast cell line (LV2); format: cell-based
Vasopressin V1a receptor [1] = target: T1, Vasopressin V1a receptor (Homo sapiens, UniProt P37288); assay: In vitro inhibition of [3H]- AVP binding to V1a receptor from human platelet membrane
Target sequence in this assay (P37288 whole entry): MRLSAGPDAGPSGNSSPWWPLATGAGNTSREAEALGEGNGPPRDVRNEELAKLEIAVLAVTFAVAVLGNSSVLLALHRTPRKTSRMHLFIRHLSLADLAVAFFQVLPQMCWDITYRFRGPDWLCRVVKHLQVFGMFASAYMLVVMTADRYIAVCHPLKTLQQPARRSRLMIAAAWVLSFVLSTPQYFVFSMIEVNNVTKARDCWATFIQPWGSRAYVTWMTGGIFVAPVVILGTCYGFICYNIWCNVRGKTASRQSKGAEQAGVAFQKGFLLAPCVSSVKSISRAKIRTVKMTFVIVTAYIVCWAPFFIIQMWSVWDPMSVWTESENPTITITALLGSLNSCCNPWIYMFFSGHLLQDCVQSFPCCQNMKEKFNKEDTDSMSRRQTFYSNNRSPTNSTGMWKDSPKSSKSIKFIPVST

Vasopressin V1a receptor [2] = target: T1, Vasopressin V1a receptor; assay: In vitro inhibition of [3H]- AVP binding to V1a receptor from human platelet membrane at 10 uM
Target sequence in this assay (P37288 whole entry, looked up): as the sequence (P37288 whole entry) above

Chain of Vasopressin V2 receptor (P30518 whole entry): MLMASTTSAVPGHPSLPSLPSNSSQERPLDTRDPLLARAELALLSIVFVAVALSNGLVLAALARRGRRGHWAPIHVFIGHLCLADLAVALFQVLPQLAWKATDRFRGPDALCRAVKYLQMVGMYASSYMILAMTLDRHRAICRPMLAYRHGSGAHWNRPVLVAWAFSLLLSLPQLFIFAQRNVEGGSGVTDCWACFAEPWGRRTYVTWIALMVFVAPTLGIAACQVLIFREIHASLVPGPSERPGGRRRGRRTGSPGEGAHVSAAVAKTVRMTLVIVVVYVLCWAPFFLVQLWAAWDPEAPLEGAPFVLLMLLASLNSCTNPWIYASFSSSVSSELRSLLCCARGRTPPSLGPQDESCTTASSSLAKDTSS

Row | SMILES | Urine volume (Rattus norvegicus) | IC50 (Vasopressin V2 receptor) | IC50 (Vasopressin V1a receptor [1]) | inhibition (Vasopressin V1a receptor [2])
1 | Cc1ccc(F)cc1C(=O)Nc1ccc(C(=O)N2Cc3cccn3Cc3ccccc32)c(Cl)c1 [LIXIVAPTAN] | 35 ml 4hr-1 | – | – | –
2 | Cc1ccc(F)cc1C(=O)Nc1ccc(C(=O)N2Cc3sccc3Cc3ccccc32)cn1 | 16.5 ml 4hr-1 | – | – | –
3 | Cc1ccc(F)cc1C(=O)Nc1ccc(C(=O)N2Cc3sccc3Cc3ccccc32)c(Cl)c1 | 30 ml 4hr-1 | 6.8 nM | – | 59%

Results, then the compound that gave them:

Row | Urine volume (Rattus norvegicus) | IC50 (Vasopressin V2 receptor) | IC50 (Vasopressin V1a receptor [1]) | inhibition (Vasopressin V1a receptor [2]) | SMILES
4 | 5.8 ml 4hr-1 | 19 nM | 43 nM | – | O=C(Nc1ccc(C(=O)N2Cc3sccc3Cc3ccccc32)cc1)c1ccc(Cl)cc1Cl
5 | 4.5 ml 4hr-1 | – | – | – | Cc1ccccc1C(=O)Nc1ccc(C(=O)N2Cc3ccsc3Cc3ccccc32)cc1
6 | 13.5 ml 4hr-1 | 0.7 nM | 8.5 nM | – | Cc1ccccc1C(=O)Nc1ccc(C(=O)N2Cc3sccc3Cc3ccccc32)cc1
